Results taken from patent US10059733B2 (NUCORION PHARMACEUTICALS, INC., priority 2014, dated 2018).
Like-named read-outs stand apart in the source and are kept apart here.

How the values were obtained:
HCV luciferase replicon = assay: IC50 assay: inhibition of the HCV luciferase replicon in Huh7 cells; format: cell-based; details: for IC50: Hepatitis C virus; for Therapeutic Index (TC50/IC50): TC50 in Huh7 / IC50 HCV replicon, 48 h
Experimental: After 48 h of treatment at 37° C., the media in each well was removed, the cells were gently washed once with phosphate buffered saline (PBS) and subsequently lysed by the addition of Glo Lysis Buffer (Promega). After a 15 min incubation at room temperature to allow for complete cell lysis, Bright-Glo luciferase reagent (Promega) was added to each well and the relative luciferase activity in each well was determined by using a Glowmax 96 microplate luminometer (Promega).
IC50 values determined using the above methods for inhibition of the HCV luciferase replicon in Huh7 cells are set forth in Table 1.
All compounds were purified by HPLC.

[1] = TC50 assay in Huh7 cells, 48 h (CellTiter 96); details: human
Experimental: (§1) Huh7 cells were maintained at 37° C. in a humidified atmosphere at 5% CO2 in DMEM containing 10% FBS. […] The cells were then treated with each compound at concentrations ranging from 500 μM to 0 μM in triplicate in DMEM media containing 2% FBS and 0.5% DMSO and without phenol red. After 48 h of treatment at 37° C., the relative number of living cells in each well was determined by using the CellTiter 96 system (Promega) according to the manufacturer's instructions. The 3-(4,5-dimethylthiazol-2-yl)-5-(3-carboxymethoxyphenyl)-2-(4-sulfophenyl)-2H-tetrazolium (MTS) and phenazine methosulfate (PMS) reagents were added to each well of the 96-well plate and the plate was incubated at 37° C. for approximately 2 h. The absorbance at 490 nm and 650 nm in each well was then determined by using a Flexstation 3 microplate reader ([…]). The absorbance determined at 650 nm was then subtracted from the absorbance determined at 490 nm to correct for light scattering. The corrected absorbance values representing the relative number of live cells in each condition were then plotted as a function of compound concentration, and the data were then fit to the following sigmoidal Emax equation by using Kaleidagraph: y=(Emax*x^Slope)/(TC50^Slope+x^Slope) where y is the relative corrected absorbance value, Emax is the maximum relative inhibition, x is the compound concentration, TC50 is the concentration of the compound at which the total cell population is reduced by 50%, and Slope is the slope of the curve.
(§2) The data in Table 1 were determined for cells exposed to drug for 48 h. The IC50 is the concentration of each compound necessary to inhibit the replication of the HCV luciferase replicon to 50%. “TC50,” refers to toxic concentration necessary to reduce the cell population by 50%. All compounds were purified by HPLC.

Huh7 = assay: TC50 assay with human cancer cell lines, 96 h: Huh7; format: cell-based
Experimental: (§6) Huh7 cells were maintained at 37° C. in a humidified atmosphere at 5% CO2 in DMEM containing 10% FBS. […] The cells were then treated with each compound at concentrations ranging from 500 μM to 0 μM in triplicate in DMEM media containing 2% FBS and 0.5% DMSO and without phenol red. After 48 h of treatment at 37° C., the relative number of living cells in each well was determined by using the CellTiter 96 system (Promega) according to the manufacturer's instructions. The 3-(4,5-dimethylthiazol-2-yl)-5-(3-carboxymethoxyphenyl)-2-(4-sulfophenyl)-2H-tetrazolium (MTS) and phenazine methosulfate (PMS) reagents were added to each well of the 96-well plate and the plate was incubated at 37° C. for approximately 2 h. The absorbance at 490 nm and 650 nm in each well was then determined by using a Flexstation 3 microplate reader (Molecular Dynamics). The absorbance determined at 650 nm was then subtracted from the absorbance determined at 490 nm to correct for light scattering. The corrected absorbance values representing the relative number of live cells in each condition were then plotted as a function of compound concentration, and the data were then fit to the following sigmoidal Emax equation by using Kaleidagraph: y=(Emax*x^Slope)/(TC50^Slope+x^Slope) where y is the relative corrected absorbance value, Emax is the maximum relative inhibition, x is the compound concentration, TC50 is the concentration of the compound at which the total cell population is reduced by 50%, and Slope is the slope of the curve.
(§7) Huh7, HEPG2, HEK293, MCF-7 and BxPC3 cell lines were maintained at 37° C. in a humidified atmosphere at 5% CO2 in DMEM containing 10% FBS. […] The cells were then treated with each compound at concentrations ranging from 500 μM to 0 μM in triplicate in DMEM media containing 2% FBS and 0.5% DMSO and without phenol red.

HEPG2 = assay: TC50 assay with human cancer cell lines, 96 h: HEPG2; format: cell-based
Experimental: as §6, §7

HEK293 = assay: TC50 assay with human cancer cell lines, 96 h: HEK293; format: cell-based
Experimental: as §6, §7

MCF-7 = assay: TC50 assay with human cancer cell lines, 96 h: MCF-7; format: cell-based
Experimental: as §6, §7

BxPC3 = assay: TC50 assay with human cancer cell lines, 96 h: BxPC3; format: cell-based
Experimental: as §6, §7

PK9 cells [2] = assay: TC50 assay in PK9 cells, 48 h; details: Homo sapiens, PK9, 48 h, read-out: TC50 (μM) in PK9 cells at 48 hr
Experimental: as §1
(§3) PK9 and RPK9 cells were maintained at 37° C. in a humidified atmosphere at 5% CO2 in Roswell Park Memorial Institute (RPMI) media containing 10% FBS. […] The cells were then treated with each compound at concentrations ranging from […] to 0 μM in triplicate in RPMI media containing 2% FBS and 0.5% DMSO and without phenol red. […] The RPK9 cells were derived from the parental PK9 cell line, and are deficient for dCK activity due to the partial deletion of the dCK gene.

RPK9 cells = assay: TC50 assay in gemcitabine resistant (dCK deficient) RPK9 cells, 48 h; details: read-out: TC50 (μM) in RPK9 cells at 48 hr
Experimental: as §1, §3

Huh7 cells [3] = assay: Cell transport: cytotoxicity in Huh7 cells with or without ENT1 inhibitor NBTI; details: Homo sapiens, Huh-7, 48 h
Experimental: as §1
(§4) To this end, Huh7 cells or PK9 cells were seeded in 96-well plates at a density of 5,000 cells/well or 2,500 cells/well, respectively, and the plates were incubated at 37° C. for 24 h to allow for cell attachment. The media was then removed from the plates and replaced with media containing 2% FBS, 0.5% DMSO and 10 μM NBTI. […] Subsequently, the cells were treated with each compound at final concentrations ranging from 500 μM to 0 μM in triplicate in media containing 2% FBS, 0.5% DMSO and 10 μM NBTI. […] The TC50 values of each compound in the presence or absence of the ENT1 inhibitor were then compared.

PK9 cells [4] = assay: Cell transport: cytotoxicity in PK9 cells with or without ENT1 inhibitor NBTI; details: Homo sapiens, PK9, 48 h
Experimental: as §1, §4

genotype 1a HCV = assay: Oral administration to HCV-infected chimpanzees, viral load (genotype 1a); format: in vivo, chimpanzee; details: Chimpanzee III
Experimental: (§5) Via oral gavage, two HCV-infected chimpanzees I (male, 56.49 kg and 11 years old; genotype 1b HCV) and II (male, 61.91 kg and 34 years old; genotype 1a HCV) each received a single dosage of 200 mg of Compound 1 in Formulation I while the HCV-infected chimpanzee III (male, 56.19 kg and 18 years old; genotype 1a HCV) was administered a single dosage of 260 mg of the non-phosphorylated analog of Compound 1 (Table 1) in Formulation I. After 12 hours, the HCV viral titer decreased from 24,100 to 10,200 IU/ml (or 58% drop) in Chimpanzee I, from 38,500 to 27,000 IU/ml (or 30% drop) in Chimpanzee II, and from 154,000 to 142,000 IU/ml (or 8% drop) in Chimpanzee III. […] All animals were fasted overnight prior to dosing and a minimum of 2 hours prior to scheduled blood sample collections. Viral load determinations were performed on plasma samples using the HCV TaqMan assay (COBAS® AmpliPrep/COBAS® TaqMan® HCV Test, Version 2, Test Code 1220) for quantitative analysis. […] There were no adverse effects, illness, nor distress seen with the three chimpanzees during the study requiring veterinarian intervention.

[5] = Tolerability of single oral dosage in HCV-infected chimpanzees; format: in vivo, chimpanzee; details: single oral dosage 260 mg
Experimental: as §5

Huh7 cells [6] = assay: TC50 assay in Huh7 cells, 48 h (CellTiter 96); details: read-out: TC50; Huh7 cells, 48 h exposure
Experimental: as §1, §2

[7] = Huh-7, Huh7 cells containing HCV luciferase replicon, 48 h exposure, read-out: IC50
[8] = Huh-7, 96 h of treatment, read-out: TC50 Huh7
[9] = HepG2, 96 h of treatment, read-out: TC50 HEPG2
[10] = HEK293, 96 h of treatment, read-out: TC50 HEK293
[11] = MCF7, 96 h of treatment, read-out: TC50 MCF-7
[12] = BXPC-3, 96 h of treatment, read-out: TC50 BxPC3
[13] = read-out: TC50 (μM) in PK9 cells at 48 h Without NBTI

SMILES	IC50 (HCV luciferase replicon; [7])	Therapeutic Index (TC50/IC50) (HCV luciferase replicon)	CC50 (Huh7; [8])	CC50 (HEPG2; [9])	CC50 (HEK293; [10])	CC50 (MCF-7; [11])	CC50 (BxPC3; [12])	CC50 (PK9 cells [2])	CC50 (RPK9 cells)	CC50 (PK9 cells [4]; [13])	other results
CCCC(CCC)C(=O)Nc1ccn(C2O[C@H](CO)[C@@H](O)C2(F)F)c(=O)n1 (stereo partly shown) [Non-phosphorylated analog of Compound 1]	0.451 ± 0.079 µM	850	3.89 ± 0.68 µM	4.32 ± 0.34 µM	15.1 ± 1.77 µM	9.06 ± 1.95 µM	1.02 ± 0.15 µM	1.27 ± 0.09 µM	> 500 µM	1.27 µM	CC50 at 48 h ([1]; Huh7 cells): 383 ± 51 µM; CC50 (Huh7 cells [3]; read-out: TC50 (μM) in Huh7 cells at 48 h With NBTI): 260 µM; CC50 (Huh7 cells [3]; read-out: TC50 (μM) in Huh7 cells at 48 h Without NBTI): 383 µM; CC50 (PK9 cells [4]; read-out: TC50 (μM) in PK9 cells at 48 h With NBTI): 6.6 µM; drop of HCV viral titer after 12 hours (genotype 1a HCV; single oral dosage 260 mg): 8%; HCV viral titer after 12 hours (genotype 1a HCV; single oral dosage 260 mg in Formulation I, titer before 154,000 IU/ml): 142,000 IU/ml; tolerability [5]: well tolerated
Nc1ccn([C@@H]2O[C@H](CO)[C@@H](O)C2(F)F)c(=O)n1 [Gemcitabine, 2′,2′-difluorodeoxycytidine, reference compound]	0.058 ± 0.006 µM	–	3.41 ± 1.36 µM	0.311 ± 0.055 µM	0.56 ± 0.13 µM	0.067 ± 0.014 µM	0.0029 ± 0.003 µM	0.095 ± 0.035 µM	> 500 µM	0.095 µM	–
COc1cc(C(=O)Nc2ccn([C@@H]3O[C@H](CO)[C@@H](O)C3(F)F)c(=O)n2)cc(OC)c1OC [Non-phosphorylated analog of Compound 3, N-(1-((2R,4R,5R)-3,3-difluoro-4-hydroxy-5-(hydroxymethyl)tetrahydrofuran-2-yl)-2-oxo-1,2-dihydropyrimidin-4-yl)-3,4,5-trimethoxybenzamide]	0.0493 ± 0.0088 µM	10040	5.05 µM	1.67 µM	1.28 µM	0.566 µM	1.83 µM	1.69 ± 0.1 µM	> 500 µM	–	CC50 (Huh7 cells [6]): 495 ± 97 µM
COc1cc(C(=O)Nc2ccn([C@@H]3O[C@H](CO[P@@](=O)(N[C@@H](C)C(=O)OC(C)C)Oc4ccccc4)C(O)C3(F)F)c(=O)n2)cc(OC)c1OC (stereo in doubt) [Compound 3]	–	210	–	–	–	–	–	18.5 ± 11.9 µM	24.2 ± 4.2 µM	–	IC50 (HCV luciferase replicon; Huh-7, 48 h): 0.274 ± 0.08 µM; CC50 at 48 h [1]: 57.5 ± 11.6 µM; CC50 (Huh7; Huh-7, 96 h, read-out: TC50 Huh7 (μM)): 8.37 µM; CC50 (HEPG2; HepG2, 96 h, read-out: TC50 HEPG2 (μM)): 1.57 µM; CC50 (HEK293; HEK293, 96 h, read-out: TC50 HEK293 (μM)): 1.1 µM; CC50 (MCF-7; MCF7, 96 h, read-out: TC50 MCF-7 (μM)): 0.683 µM; CC50 (BxPC3; BXPC-3, 96 h, read-out: TC50 BxPC3 (μM)): 4.07 µM
